In ChEMBL document CHEMBL6109153, “Development of Membrane-Targeting Osthole Derivatives Containing Pyridinium Quaternary Ammonium Moieties with Potent Anti-Methicillin-Resistant Staphylococcus aureus Properties” (J Med Chem, 2025):
Activity calls are given as the source filed them. The rule behind the calls is not given here.

Tests used:
[1] = Toxicity in KM mouse assessed as abnormality in lung at 20 mg/kg, sc by H and E staining based analysis; assay type: organism-based; details: in vivo
[2] = Toxicity in BALB/c mouse assessed as lesions in tissues of organs at 10 mg/kg, ip measured for 7 days by H and E staining based analysis; assay type: organism-based; details: in vivo, 168 h, time 7 day
[3] = Toxicity in BALB/c mouse assessed as mortality rate at 20 mg/kg, ip measured for 7 days; assay type: organism-based; details: in vivo, time 7 day, read-out: Activity
[4] = Toxicity in BALB/c mouse assessed as change in serum biochemical parameters at 10 mg/kg, ip measured for 7 days; assay type: organism-based; details: in vivo, 168 h, time 7 day
[5] = Toxicity in KM mouse assessed as adverse reactions at <=20 mg/kg, sc; assay type: organism-based; details: in vivo
[6] = Toxicity in KM mouse assessed as erythema on dorsal skin at 30 mg/kg, sc; assay type: organism-based; details: in vivo
[7] = Toxicity in KM mouse assessed as erythema on dorsal skin at <=20 mg/kg, sc; assay type: organism-based; details: in vivo
[8] = Toxicity in BALB/c mouse assessed as change in blood routine parameters at 10 mg/kg, ip measured for 7 days; assay type: organism-based; details: in vivo, 168 h, time 7 day
Staphylococcus aureus [9] = experiment: Antibacterial activity against methicillin-resistant Staphylococcus aureus M11 infected in BALB/c mouse model of Sepsis assessed as reduction in bacterial load in kidney at 20 mg/kg, ip measured after 48 hrs; assay type: functional
[10] = Toxicity in BALB/c mouse assessed as change in serum biochemical parameters at 30 mg/kg, ip measured for 7 days; assay type: organism-based; details: in vivo, 168 h, time 7 day
Staphylococcus aureus [11] = experiment: Antibacterial activity against methicillin-resistant Staphylococcus aureus M11 infected in BALB/c mouse model of Sepsis assessed as reduction in bacterial load in liver at 10 mg/kg, ip measured after 48 hrs; assay type: functional
[12] = Binding affinity to phosphatidylglycerol assessed as association constant by ITC analysis
[13] = Toxicity in BALB/c mouse assessed as change in blood routine parameters at 30 mg/kg, ip measured for 7 days; assay type: organism-based; details: in vivo, 168 h, time 7 day
[14] = Toxicity in BALB/c mouse model of Sepsis infected with methicillin-resistant Staphylococcus aureus M11 assessed as survival rate at 30 mg/kg, ip measured after 7 days; assay type: organism-based; details: in vivo, 168 h, time 7 day
[15] = Binding affinity to phosphatidylglycerol assessed as change in entropy by ITC analysis
[16] = Toxicity in KM mouse assessed as abnormality in spleen at 30 mg/kg, sc by H and E staining based analysis; assay type: organism-based; details: in vivo
Staphylococcus aureus [17] = experiment: Antibacterial activity against methicillin-resistant Staphylococcus aureus M11 infected in BALB/c mouse model of Sepsis assessed as vacuolar degeneration in liver cells at 10 to 20 mg/kg, ip measured after 48 hrs; assay type: functional, organism-based; details: dose 10-20 mg/kg
[18] = Toxicity in KM mouse assessed as abnormality in lung at 30 mg/kg, sc by H and E staining based analysis; assay type: organism-based; details: in vivo
Staphylococcus aureus [19] = experiment: Antibacterial activity against methicillin-resistant Staphylococcus aureus M11 infected in BALB/c mouse model of Sepsis assessed as reduction in serum TNF-alpha level administered intraperitoneally measured after 48 hrs; assay type: functional, organism-based; details: dose 10-20 mg/kg, route ip
[20] = Toxicity in KM mouse assessed as abnormality in liver at 30 mg/kg, sc by H and E staining based analysis; assay type: organism-based; details: in vivo
Staphylococcus aureus [21] = experiment: Antibacterial activity against methicillin-resistant Staphylococcus aureus M11 infected in BALB/c mouse model of Sepsis assessed as reduction in bacterial load in liver at 20 mg/kg, ip measured after 48 hrs; assay type: functional
[22] = Binding affinity to phosphatidylglycerol assessed as change in enthalpy by ITC analysis
[23] = Toxicity in BALB/c mouse assessed as obvious damage in tissues of organs at 30 mg/kg, ip measured for 7 days by H and E staining based analysis; assay type: organism-based; details: in vivo, 168 h, time 7 day
[24] = Toxicity in KM mouse assessed as abnormality in heart at 30 mg/kg, sc by H and E staining based analysis; assay type: organism-based; details: in vivo
[25] = Toxicity in KM mouse assessed as adverse reactions at <=30 mg/kg, sc; assay type: organism-based; details: in vivo
Staphylococcus aureus [26] = experiment: Antibacterial activity against methicillin-resistant Staphylococcus aureus M11 infected in BALB/c mouse model of Sepsis assessed as vacuolar degeneration in renal epithelial cells at 10 mg/kg, ip measured after 48 hrs; assay type: functional, organism-based
Staphylococcus aureus [27] = experiment: Antibacterial activity against methicillin-resistant Staphylococcus aureus M11 infected in BALB/c mouse model of Sepsis assessed as reduction in bacterial load in spleen at 10 mg/kg, ip measured after 48 hrs; assay type: functional
[28] = Toxicity in BALB/c mouse assessed as mortality rate at 40 mg/kg, ip measured for 7 days; assay type: organism-based; details: in vivo, time 7 day, read-out: Activity
[29] = Toxicity in BALB/c mouse model of Sepsis infected with methicillin-resistant Staphylococcus aureus M11 assessed as survival rate at 10 mg/kg, ip measured after 7 days; assay type: organism-based; details: in vivo, 168 h, time 7 day
[30] = Toxicity in KM mouse assessed as erythema on dorsal skin at 40 mg/kg, sc; assay type: organism-based; details: in vivo
Staphylococcus aureus [31] = experiment: Antibacterial activity against methicillin-resistant Staphylococcus aureus M11 infected in BALB/c mouse model of Sepsis assessed as reduction in bacterial load in kidney at 10 mg/kg, ip measured after 48 hrs; assay type: functional
Staphylococcus aureus [32] = experiment: Antibacterial activity against methicillin-resistant Staphylococcus aureus M11 infected in BALB/c mouse model of Sepsis assessed as reduction in serum IL-6 level administered intraperitoneally measured after 48 hrs; assay type: functional, organism-based; details: dose 10-20 mg/kg, route ip

CCCCCNC(=O)C[n+]1ccc(SCCCCCOc2ccc3ccc(=O)oc3c2CC=C(C)C)cc1.[Br-]
Activity [1]: Non-toxic | Activity [2]: Non-toxic | mortality at 168 h [3]: 83.3% | Activity [4]: Non-toxic | Activity [5]: Non-toxic | Activity [6]: Toxic | Activity [7]: Non-toxic | Activity [8]: Non-toxic

CC(C)=CCc1c(OCCCCSc2cc[n+](CC(=O)N(CC(C)C)CC(C)C)cc2)ccc2ccc(=O)oc12.[Br-]
Activity (Staphylococcus aureus [9]): 4.24 log10CFU/ml | Activity [10]: Non-toxic | Activity (Staphylococcus aureus [11]): 1.84 log10CFU/ml | Ka [12]: 3.53 10^4/M | Activity [13]: Non-toxic | Survival [14]: 100% | deltaS [15]: 11.7 cal/mol/deg | Activity [16]: Non-toxic | Activity (Staphylococcus aureus [17]): Active | Activity [18]: Non-toxic | Activity (Staphylococcus aureus [19]): Dose-dependent-effect | Activity [20]: Non-toxic | Activity (Staphylococcus aureus [21]): 3.81 log10CFU/ml | deltaH [22]: -2.72 kcal/mol | Activity [23]: Non-toxic | Activity [24]: Non-toxic | Activity [25]: Non-toxic | Activity (Staphylococcus aureus [26]): inactive | Activity (Staphylococcus aureus [27]): 1.62 log10CFU/ml | mortality at 168 h [28]: 83.3% | Survival [29]: 44.4% | Activity [30]: Toxic | Activity (Staphylococcus aureus [31]): 1.81 log10CFU/ml | Activity (Staphylococcus aureus [32]): Dose-dependent-effect
